In brackets after ≈: the same amount, converted by molar mass.

The target of assay [1] is T1, Quinolone resistance protein NorA (Staphylococcus aureus) (UniProt P0A0J7).
T1 sequence (whole entry): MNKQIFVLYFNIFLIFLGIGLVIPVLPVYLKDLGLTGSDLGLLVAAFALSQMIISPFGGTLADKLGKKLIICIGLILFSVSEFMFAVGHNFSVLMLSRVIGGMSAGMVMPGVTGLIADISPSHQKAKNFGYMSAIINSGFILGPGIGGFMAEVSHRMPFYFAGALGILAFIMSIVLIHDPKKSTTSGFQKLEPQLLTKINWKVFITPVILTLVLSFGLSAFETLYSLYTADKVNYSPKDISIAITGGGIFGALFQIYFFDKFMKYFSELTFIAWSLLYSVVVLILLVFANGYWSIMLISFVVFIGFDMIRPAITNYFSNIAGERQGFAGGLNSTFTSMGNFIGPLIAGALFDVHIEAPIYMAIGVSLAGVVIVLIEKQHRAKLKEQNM
To be noted: 1199B.
Description: Inhibition of Staphylococcus aureus 1199B norA efflux pump by spectrophotometry

Assay [2] has as its system Staphylococcus aureus. The experiment in a line: microbe, parasite or virus in culture. To be noted: 1199B, 24 h.
Description: Antimicrobial activity against Staphylococcus aureus 1199B after 24 hrs
Assay [3] concerns Staphylococcus aureus. The experiment in a line: microbe, parasite or virus in culture. To be noted: Staphylococcus aureus, 1199, 24 h.
Description: Antimicrobial activity against Staphylococcus aureus 1199 after 24 hrs

For `COC(=O)[C@H]1[C@H]2C[C@@H]3c4[nH]c5cc(OC)ccc5c4CCN3C[C@H]2C[C@@H](OC(=O)c2cc(OC)c(OC)c(OC)c2)[C@@H]1OC`, in assay [1], the MEC amounted to 25 µg/mL.
`O=C(O)c1cn(C2CC2)c2cc(N3CCNCC3)c(F)cc2c1=O` [CIPROFLOXACIN]: the MIC in the assay on Staphylococcus aureus [2] came to 8 µg/mL (≈ 24.1 µM); against Staphylococcus aureus [3], 0.25 µg/mL (≈ 0.754 µM).

The record behind these values is ChEMBL document CHEMBL1240453, “Substituted dihydronaphthalenes as efflux pump inhibitors of Staphylococcus aureus” (2010).
